Laboratory results: ChEMBL document CHEMBL1759863, “Synthesis and biological activity of hydroxy substituted phenyl-benzo[d]thiazole analogues for antityrosinase activity in B16 cells” (Bioorg Med Chem Lett, 2011)

T1: Tyrosinase (Agaricus bisporus, UniProt O42713)
T1 sequence (O42713 whole entry): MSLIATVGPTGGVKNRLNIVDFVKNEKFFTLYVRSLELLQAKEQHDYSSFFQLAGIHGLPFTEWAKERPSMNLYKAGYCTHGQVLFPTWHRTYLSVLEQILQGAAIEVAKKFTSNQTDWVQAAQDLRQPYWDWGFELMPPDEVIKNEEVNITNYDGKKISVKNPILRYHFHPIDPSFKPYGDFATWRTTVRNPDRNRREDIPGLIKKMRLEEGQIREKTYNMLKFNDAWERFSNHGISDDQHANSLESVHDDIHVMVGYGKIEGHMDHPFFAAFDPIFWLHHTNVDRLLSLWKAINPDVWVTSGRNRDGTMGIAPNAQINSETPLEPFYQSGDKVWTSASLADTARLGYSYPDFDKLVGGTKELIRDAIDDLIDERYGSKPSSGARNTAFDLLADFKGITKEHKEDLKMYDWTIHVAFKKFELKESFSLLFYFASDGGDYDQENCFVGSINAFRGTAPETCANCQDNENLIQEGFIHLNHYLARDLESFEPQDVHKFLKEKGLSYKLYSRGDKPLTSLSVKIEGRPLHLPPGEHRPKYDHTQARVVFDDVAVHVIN

T2: Tyrosinase (Mus musculus) (UniProt P11344)
T2 sequence (whole entry): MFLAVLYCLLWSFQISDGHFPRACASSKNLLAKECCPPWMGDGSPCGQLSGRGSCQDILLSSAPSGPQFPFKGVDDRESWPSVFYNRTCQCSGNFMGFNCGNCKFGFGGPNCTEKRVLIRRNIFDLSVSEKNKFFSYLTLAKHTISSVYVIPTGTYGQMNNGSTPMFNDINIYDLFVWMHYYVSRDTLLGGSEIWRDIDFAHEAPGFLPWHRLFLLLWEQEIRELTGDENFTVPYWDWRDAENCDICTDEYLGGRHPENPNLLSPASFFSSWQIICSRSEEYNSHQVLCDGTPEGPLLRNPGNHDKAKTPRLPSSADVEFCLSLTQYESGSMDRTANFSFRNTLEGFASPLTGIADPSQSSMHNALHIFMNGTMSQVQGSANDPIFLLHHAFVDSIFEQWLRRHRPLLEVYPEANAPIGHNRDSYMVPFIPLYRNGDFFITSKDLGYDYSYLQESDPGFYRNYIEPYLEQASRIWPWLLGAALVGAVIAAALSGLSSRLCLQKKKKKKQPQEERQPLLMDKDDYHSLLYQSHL

T3: Tyrosinase (Agaricus bisporus) (UniProt O42713)
T3 sequence (whole entry): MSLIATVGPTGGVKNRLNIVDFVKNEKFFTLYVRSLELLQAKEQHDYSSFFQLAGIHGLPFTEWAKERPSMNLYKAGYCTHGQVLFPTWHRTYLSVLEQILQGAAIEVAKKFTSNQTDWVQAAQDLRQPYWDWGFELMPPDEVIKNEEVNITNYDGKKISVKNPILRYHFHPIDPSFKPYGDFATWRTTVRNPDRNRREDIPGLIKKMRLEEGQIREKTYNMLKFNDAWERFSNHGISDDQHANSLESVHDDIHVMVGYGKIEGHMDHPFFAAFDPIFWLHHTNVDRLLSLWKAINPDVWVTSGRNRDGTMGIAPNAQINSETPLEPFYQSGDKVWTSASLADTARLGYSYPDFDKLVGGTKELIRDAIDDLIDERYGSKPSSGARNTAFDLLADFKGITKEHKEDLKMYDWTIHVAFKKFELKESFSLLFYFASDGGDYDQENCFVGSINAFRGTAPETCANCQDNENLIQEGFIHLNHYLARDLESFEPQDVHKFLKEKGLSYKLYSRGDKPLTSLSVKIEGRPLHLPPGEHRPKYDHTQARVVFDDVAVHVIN


Columns and labels:
Tyrosinase [1] = target: T1, Tyrosinase
Description: Inhibition of mushroom tyrosinase at 20 uM by Lineweaver-Burk plot analysis

[2] = target: T2, Tyrosinase (Mus musculus); test: Inhibition of tyrosinase in alpha-MSH-induced mouse B16 cells at 2.5 uM; assay type: cell-based
[3] = target: T3, Tyrosinase (Agaricus bisporus); test: Inhibition of mushroom tyrosinase at 0.08 uM using L-tyrosine as a substrate
B16 [4] = test: Cytotoxicity against mouse B16 cells assessed as viable cells at 5 uM after 48 hrs by MTT assay relative to control; assay type: functional; conditions: B16, 48 h, read-out: Activity
[5] = target: T2, Tyrosinase (Mus musculus); test: Inhibition of tyrosinase in alpha-MSH-induced mouse B16 cells at 10 uM; assay type: cell-based
B16 [6] = test: cells; conditions: Mus musculus, B16, 24 h, read-out: INH
Description: Inhibition of alpha-MSH-induced melanin production in mouse B16 cells at 2.5 uM after 24 hrs relative to control

Tyrosinase [7] = target: T1, Tyrosinase; remark: listed apart in the source
Description: Inhibition of mushroom tyrosinase using L-tyrosine as a substrate

B16 [8] = test: cells; conditions: Mus musculus, B16, 24 h, read-out: INH; remark: listed apart in the source
Description: Inhibition of alpha-MSH-induced melanin production in mouse B16 cells at 0.2 uM after 24 hrs relative to control

B16 [9] = test: cells; conditions: Mus musculus, B16, 24 h, read-out: INH; remark: listed apart in the source
Description: Inhibition of alpha-MSH-induced melanin production in mouse B16 cells at 1 uM after 24 hrs relative to control

B16 [10] = test: cells; conditions: Mus musculus, B16, 24 h, read-out: INH; remark: listed apart in the source
Description: Inhibition of alpha-MSH-induced melanin production in mouse B16 cells at 10 uM after 24 hrs relative to control

B16 [11] = test: Cytotoxicity against mouse B16 cells assessed as viable cells at 10 uM after 48 hrs by MTT assay relative to control; assay type: functional; conditions: B16, 48 h, read-out: Activity
Tyrosinase [12] = target: T1, Tyrosinase; remark: listed apart in the source
Description: Inhibition of mushroom tyrosinase at 1.25 uM by Lineweaver-Burk plot analysis

[13] = target: T3, Tyrosinase (Agaricus bisporus); test: Inhibition of mushroom tyrosinase at 0.01 uM using L-tyrosine as a substrate
B16 [14] = test: Cytotoxicity against mouse B16 cells assessed as viable cells at 1 uM after 48 hrs by MTT assay relative to control; assay type: functional; conditions: B16, 48 h, read-out: Activity
B16 [15] = test: Cytotoxicity against mouse B16 cells assessed as viable cells at 0.2 uM after 48 hrs by MTT assay relative to control; assay type: functional; conditions: B16, 48 h, read-out: Activity
[16] = target: T2, Tyrosinase (Mus musculus); test: Inhibition of tyrosinase in alpha-MSH-induced mouse B16 cells at 5 uM; assay type: cell-based
B16 [17] = test: Cytotoxicity against mouse B16 cells assessed as viable cells at 2.5 uM after 48 hrs by MTT assay relative to control; assay type: functional; conditions: B16, 48 h, read-out: Activity
B16 [18] = test: cells; conditions: Mus musculus, B16, 24 h, read-out: INH; remark: listed apart in the source
Description: Inhibition of alpha-MSH-induced melanin production in mouse B16 cells at 5 uM after 24 hrs relative to control

[19] = target: T2, Tyrosinase (Mus musculus); test: Inhibition of tyrosinase in alpha-MSH-induced mouse B16 cells at 1 uM; assay type: cell-based
[20] = substrate: Oc1ccc(-c2nc3ccccc3s2)c(O)c1; test: (§1) Activity of mushroom tyrosinase at 20 uM by Lineweaver-Burk plot analysis; conditions: Agaricus bisporus
[21] = substrate: Oc1ccc(-c2nc3ccccc3s2)cc1; test: as §1; conditions: Agaricus bisporus
[22] = substrate: Oc1ccc(-c2nc3ccccc3s2)c(O)c1; conditions: Agaricus bisporus; 1.25 uM
[23] = substrate: Oc1ccc(-c2nc3ccccc3s2)cc1; conditions: Agaricus bisporus; 1.25 uM

Ki (Tyrosinase [1]) [nM] | inhibition [2] [%] | inhibition [3] [%] | inhibition [5] [%] | IC50 (Tyrosinase [7]) [nM] | Ki (Tyrosinase [12]) [nM] | inhibition [13] [%] | inhibition [16] [%] | Molecule | viability at 5 µM (B16 [4]) [%] | inhibition at 2.5 µM (B16 [6]) [%] | inhibition at 0.2 µM (B16 [8]) [%] | inhibition at 1 µM (B16 [9]) [%] | inhibition at 10 µM (B16 [10]) [%] | viability at 10 µM (B16 [11]) [%] | viability at 1 µM (B16 [14]) [%] | viability at 0.2 µM (B16 [15]) [%] | viability at 2.5 µM (B16 [17]) [%] | inhibition at 5 µM (B16 [18]) [%] | further results
7700 | 111 | 70.8 | 99.6 | 10 | 673 | 49.9 | 108 | Oc1ccc(-c2nc3ccccc3s2)c(O)c1 | 94.6 | 190 | 224 | 217 | 131 | 94.4 | 94.9 | 96.3 | 94.7 | 141 | –
1700 | 98.8 | 46.2 | 95.2 | 1140 | 567 | 45.4 | 97.7 | Oc1ccc(-c2nc3ccccc3s2)cc1 | 96.5 | 129 | 201 | 188 | 97.1 | 95.8 | 98.9 | 99.7 | 97.6 | 104 | inhibition [19]: 133%
– | – | – | – | – | – | – | – | Tyrosinase (Agaricus bisporus), O42713 (protein) MSLIATVGPTGGVKNRLNIVDFVKNEKFFTLYVRSLELLQAKEQHDYSSFFQLAGIHGLPFTEWAKERPSMNLYKAGYCTHGQVLFPTWHRTYLSVLEQILQGAAIEVAKKFTSNQTDWVQAAQDLRQPYWDWGFELMPPDEVIKNEEVNITNYDGKKISVKNPILRYHFHPIDPSFKPYGDFATWRTTVRNPDRNRREDIPGLIKKMRLEEGQIREKTYNMLKFNDAWERFSNHGISDDQHANSLESVHDDIHVMVGYGKIEGHMDHPFFAAFDPIFWLHHTNVDRLLSLWKAINPDVWVTSGRNRDGTMGIAPNAQINSETPLEPFYQSGDKVWTSASLADTARLGYSYPDFDKLVGGTKELIRDAIDDLIDERYGSKPSSGARNTAFDLLADFKGITKEHKEDLKMYDWTIHVAFKKFELKESFSLLFYFASDGGDYDQENCFVGSINAFRGTAPETCANCQDNENLIQEGFIHLNHYLARDLESFEPQDVHKFLKEKGLSYKLYSRGDKPLTSLSVKIEGRPLHLPPGEHRPKYDHTQARVVFDDVAVHVIN | – | – | – | – | – | – | – | – | – | – | Km [20]: 1460 µM; Km [21]: 5650 µM; Km [22]: 1160 µM; Km [23]: 1020 µM
